Several values for one entry are separate records, joined by “and”; a condition that tells them apart may be missing. Equal values may be shown once.
Assays:
[1] = system: human epithelial squamous cell carcinoma cells (A431); assay: Cell viability (NRU assay) after irradiation with varying incubation periods (2, 3 or 4 hours); type: cell-based; conditions: A431 cells, then red light 37 J/cm^2, NRU assay, individual replicates
Experimental: Neutral red is an inert dye actively taken up and stored by viable (living) cells, an action which is unable to be performed by non-viable cells, therefore the level of neutral red taken up is directly proportional to the number of viable cells present following a given exposure. Following uptake of the dye, cells are lysed and the level of neutral red quantified using a plate reader.
After the relevant incubation period, the cells were irradiated with red light (37 J/cm^2; 635±2 nm; Aktilite, Galderma, UK).

[2] = system: human epithelial squamous cell carcinoma cells (A431); assay: PpIX fluorescence after varying incubation periods (2, 3 or 4 hours); conditions: for PpIX fluorescence: A431 cells, individual replicates
Experimental: (§1) Briefly, cells were seeded at 2×10^4 cells per well in a 96 well plate and left to adhere overnight. Test solutions were prepared on the day of the assay and applied to the cells. The level of PpIX produced was monitored using a multi-well fluorescent plate reader with a 400 (±30) nm excitation filter and a 645 (±40) nm emission filter, with the level of fluorescence produced being directly proportional to the level of PpIX present. Readings were taken hourly for 6 hours and were conducted under low light conditions to reduce photobleaching of PpIX.

[3] = system: human epithelial squamous cell carcinoma cells (A431); assay: PpIX fluorescence accumulation; conditions: A431 cells;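 also: PpIX fluorescence accumulating inside A431 cells, read under dim light to limit photobleaching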
Experimental: as §1
These were tested alongside equimolar concentrations of ALA, ALA and CP94 (3), MAL, and MAL and CP94 (3), with all test compounds being investigated in human dermal fibroblasts (84BR; FIGS. 2A and 2B), human epithelial squamous cell carcinoma cells (A431; FIGS. 3A and 3B) and human glioblastoma cells (U87MG; FIGS. 4A and 4B).

[4] = system: human dermal fibroblasts (84BR); assay: PDT efficacy: cell viability (NRU assay) following irradiation
Experimental: (§2) To assess the effect of AP2-18 (8) on PpIX-induced PDT efficacy, the same three cell types were exposed to equimolar concentrations of ALA, ALA and CP94 (3), MAL, MAL and CP94 (3), and AP2-18 (8) (as described previously) and incubated in the dark for 4 hours. The level of PpIX accumulation was then quantified as before, prior to irradiation with red light (37 J/cm^2; 635±2 nm; Aktilite, Galderma, UK).

[5] = system: MRC-5 (human embryonic lung fibroblast) cells; assay: Toxicity testing: neutral red uptake (NRU) assay, inherent (dark) toxicity; conditions: 0.01% (v/v), positive control
Experimental: Control cells were incubated in standard cell culture medium.

[6] = system: human epithelial squamous cell carcinoma cells (A431); assay: PDT efficacy: cell viability (NRU assay) following irradiation; type: cell-based; conditions: 4 h dark incubation, red light 37 J/cm^2, normalised to blank control
Experimental: as §2

[7] = system: human glioblastoma cells (U87MG); assay: as above; type: cell-based; conditions: 500 μM (combinations: 500 μM each), 4 h dark incubation, red light 37 J/cm^2, normalised to blank control
Experimental: as §2

[8] = 250 μM (each drug), incubation time 2 hours, 250 µM
[9] = 250 μM (each drug), incubation time 3 hours, 250 µM
[10] = 250 μM (each drug), incubation time 4 hours, 250 µM
[11] = 500 μM (each drug), incubation time 2 hours, 500 µM
[12] = 500 μM (each drug), incubation time 3 hours, 500 µM
[13] = 500 μM (each drug), incubation time 4 hours, 500 µM
[14] = 1000 μM (each drug), incubation time 2 hours, 1000 µM
[15] = 1000 μM (each drug), incubation time 3 hours, 1000 µM
[16] = 1000 μM (each drug), incubation time 4 hours, 1000 µM
[17] = 500 μM (each drug), incubation time 2 hours
[18] = 500 μM (each drug), incubation time 3 hours
[19] = 500 μM (each drug), incubation time 4 hours
[20] = 1000 μM (each drug), incubation time 2 hours
[21] = 1000 μM (each drug), incubation time 3 hours
[22] = 1000 μM (each drug), incubation time 4 hours

## NCC(=O)CCC(=O)O [ALA, aminolevulinic acid]
[1]; [8]
  cell viability: 104.2825 and 103.9063 and 123.5695 and 112.4377 and 117.6227 and 97.71 and 44.14 and 34.7079 and 50.73
[1]; [9]
  cell viability: 124.0654 and 135.6267 and 95.31 and 55.77 and 55.32 and 62.02 and 56.05 and 85.67 and 55.08 and 120.1384 and 57.18 and 77.31
[1]; [10]
  cell viability: 82.01 and 64.97 and 20.14 and 125.0307 and 150.1618 and 127.1037 and 6.313 and 9.566 and 15.91
[1]; [11]
  cell viability: 99.84 and 113.3557 and 112.7404 and 95.2285 and 69.94 and 82.25 and 65.56 and 62.54 and 64.53
[1]; [12]
  cell viability: 118.05 and 77.38 and 69.99 and 77.18 and 78.53 and 70.11 and 42.15 and 44.3852 and 60.85 and 274.4678 and 51.1 and 55.1
[1]; [13]
  cell viability: 67.69 and 28.73 and 8.056 and 111.2275 and 105.7573 and 29.3785 and 108.0828 and 59.78 and 39.7
[1]; [14]
  cell viability: 87.3 and 106.5283 and 118.4391 and 110.6882 and 113.0739 and 122.8714 and 119.6405 and 111.0759 and 80.15
[1]; [15]
  cell viability: 146.327 and 79.29 and 120.4428 and 43.82 and 38.85 and 34.8 and 39.79 and 27.42 and 54.75 and 57.2548 and 73.63 and 60.04
[1]; [16]
  cell viability: 59.3 and 27.29 and 6.353 and 109.5082 and 86.85 and 18.6677 and 42.58 and 43.47 and 28.34
[2]; [17]
  PpIX fluorescence: −3.67 and −1.67 and −2.67 and 15.33 and 12.33 and 19.33 and 3.667 and 0.6667 and 5
[2]; [18]
  PpIX fluorescence: 7 and 9 and 6 and 27 and 24 and 32 and 2.667 (2×) and 4.667
[2]; [19]
  PpIX fluorescence: 22.67 and 25.67 and 27.67 and 38 and 36 and 43 and 5 and 4 and 6.667
[2]; [20]
  PpIX fluorescence: 1.33 and 9.33 and 14.33 and 12.33 and 15.33 and 16.33 and 8.333 and 6.333 and 9.667
[2]; [21]
  PpIX fluorescence: 14.33 and 25.33 and 26.33 and 27.33 and 28.33 and 32.33 and 12.33 and 10.33 and 9.333
[2]; [22]
  PpIX fluorescence: 32.33 and 45.33 (2×) and 43.33 and 38.33 (2×) and 12.33 (2×) and 12
[3]; 500 μM (each component), exposure time 4 hours
  PpIX accumulation: 22.67 and 25.67 and 27.67 and 38 and 36 and 43
[3]; 500 μM (each component), exposure time 5 hours
  PpIX accumulation: 39.67 and 42.67 and 45.67 and 49.33 and 51.33
[3]; 500 μM (each component), exposure time 6 hours
  PpIX accumulation: 52.33 and 55.33 and 61.33 and 61.67 and 62.67
[3]; 1000 μM (each component), exposure time 4 hours
  PpIX accumulation: 32.33 and 45.33 and 43.33 and 38.33
[3]; 1000 μM (each component), exposure time 5 hours
  PpIX accumulation: 50.67 and 63.67 and 60.67 and 51.67 and 54.67 and 57.67
[3]; 1000 μM (each component), exposure time 6 hours
  PpIX accumulation: 63 and 79 and 72 and 65 and 68 and 75

## CCc1c(O)c(O)cc[n+]1CC.[Cl-] [CP94]
[2]; A431, added to the ALA or MAL incubation period
  effect of iron chelator on PpIX levels: improved PpIX levels
[4]; 84BR, added to ALA or MAL
  effect of iron chelator on PDT effect of ALA and MAL: improved the PDT effect of both ALA and MAL in a concentration dependent manner

## OO [H2O2, hydrogen peroxide]
[5]
  cell viability by NRU: significant reduction in cell viability

## COC(=O)CCC(=O)CN [MAL, methyl aminolevulinate]
[6]; 250 μM (combinations: 250 μM each)
  cell viability following irradiation: 90.46% and 107.8629% and 109.4385% and 93.64% and 106.3667%
[6]; 500 μM (combinations: 500 μM each)
  cell viability following irradiation: 90.24% and 110.2301% and 98.69% and 113.2846% and 104.0869% and 74.42%
[6]; Homo sapiens, A-431, light or radiation study, 4 h, 250 μM (combinations: 250 μM each)
  viability at 250 µM: 110%
[7]
  cell viability following irradiation: 83.8% and 72.46% and 73.96% and 78.24% and 80.7%
[7]; Homo sapiens, U-87 MG, light or radiation study, 4 h
  viability at 500 µM: 81.6%
[1]; [8]
  cell viability: 78.63 and 100.9237 and 89.58 and 117.6227 and 107.2209 and 106.7755 and 45.7309 and 63.26 and 57.86
[1]; [9]
  cell viability: 92.9 and 73.67 and 65.45 and 62.6519 and 51.74 and 54.37 and 33.36 and 40.45 and 63.31 and 38.2134 and 54.71 and 47.85
[1]; [10]
  cell viability: 90.46 and 107.8629 and 109.4385 and 93.64 and 106.3667 and 111.1665 and 115.1445 and 124.4547
[1]; [11]
  cell viability: 103.8357 and 110.62 and 117.5455 and 82.92 and 108.8432 and 82.89 and 99.5 and 114.8824 and 75.71
[1]; [12]
  cell viability: 40.78 and 47.71 and 49.73 and 71.71 and 76.89 and 81.87 and 74.41 and 55.25 and 104.0986 and 49.38 and 75.04 and 67.4
[1]; [13]
  cell viability: 90.24 and 110.2301 and 98.69 and 113.2846 and 104.0869 and 74.42 and 104.4856 and 97.36 and 135.6405
[1]; [14]
  cell viability: 113.344 and 113.9162 and 113.1911 and 108.366 and 113.6783 and 85.84 and 45.89 and 39.15 and 53.82
[1]; [15]
  cell viability: 93.27 and 84.83 and 88.71 and 39.35 and 38.5 and 43.01 and 59.91 and 53.88 and 52.9157 and 75.55 and 92.95 and 90.52
[1]; [16]
  cell viability: 91.78 and 85.804 and 110.3323 and 138.7061 and 132.5587 and 155.8802 and 165.2883 and 91.73 and 106.1163
[2]; [17]
  PpIX fluorescence: −7.33 and 4.67 and −5.67 (2×) and −7.67 and 8.67 and −2.33 and 1.67 and 21
[2]; [18]
  PpIX fluorescence: −3.67 and −6.67 and 5.33 and −2.67 (2×) and 0.33 and 7.67 and −2.33 and 1.67
[2]; [19]
  PpIX fluorescence: −4.33 and −7.33 and 3.67 (2×) and 0.67 and 1.67 and 9 and 0 and 2
[2]; [20]
  PpIX fluorescence: 28 and 21 and 9.67 and 10.67 and 11.67 and −3.667 and 0.3333 and −8.333 and 51
[2]; [21]
  PpIX fluorescence: 45 and 50 and 42 and 22.67 and 25.67 and 20.67 and −3.333 and 0.6667 and −10.3333
[2]; [22]
  PpIX fluorescence: 70 and 74 and 64 and 34.33 and 39.33 and 30.33 and −2 and 4 and −8.333
[4]; Homo sapiens, Fibroblast, light or radiation study, 4 h, read-out: cell viability following irradiation, 84BR, 500 μM, 4 hours in the dark, red light 37 J/cm^2, NRU, normalised against blank control cells
  viability at 500 µM: 80.9%
[4]; Homo sapiens, Fibroblast, light or radiation study, 4 h, read-out: cell viability following irradiation, 84BR, 1000 μM, 4 hours in the dark, red light 37 J/cm^2, NRU, normalised against blank control cells
  viability at 1000 µM: 97.3%

— patent publication US9346758B2, “Pyridinone compounds for use in photodynamic therapy” (UNIVERSITY OF EXETER, priority 2012, dated 2016)
